{"source": "paper PMC3423587", "about": "(Bioorganic & medicinal chemistry letters, 2012)", "key": {"recombinant β-secretase": {"biological_target": "recombinant β-secretase (Homo sapiens, UniProt P56817)", "sequence (P56817 46-501)": "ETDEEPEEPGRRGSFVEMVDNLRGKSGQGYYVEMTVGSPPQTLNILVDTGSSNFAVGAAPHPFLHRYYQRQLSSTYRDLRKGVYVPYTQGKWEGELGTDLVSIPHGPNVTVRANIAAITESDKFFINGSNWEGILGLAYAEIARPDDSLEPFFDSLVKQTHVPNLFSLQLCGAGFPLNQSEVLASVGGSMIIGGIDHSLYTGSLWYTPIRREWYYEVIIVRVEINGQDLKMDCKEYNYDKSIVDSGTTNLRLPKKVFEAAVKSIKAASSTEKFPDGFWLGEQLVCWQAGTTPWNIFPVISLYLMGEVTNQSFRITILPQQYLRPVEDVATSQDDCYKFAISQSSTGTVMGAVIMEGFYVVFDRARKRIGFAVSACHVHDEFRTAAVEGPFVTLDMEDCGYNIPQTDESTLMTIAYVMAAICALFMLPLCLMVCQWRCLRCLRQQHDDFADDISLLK", "assay": "β-secretase inhibitory activity against recombinant β-secretase", "details": "for fold lower enzyme inhibitory potency: compared to 3a"}, "[1]": {"test_system": "β-secretase in neuroblastoma cells", "details": "Neuroblastoma cell"}, "transgenic AD mice": {"test_system": "transgenic AD mice", "details": "cited from earlier work"}}}
{"smiles": "CN(C(=O)CC[C@@H](c1ccccc1)N1Cc2cc(Oc3ccccc3)ccc2N=C1N)C1CCCCC1", "note": "[3b]", "values": [{"measurement": "fold lower enzyme inhibitory potency", "setting": "recombinant β-secretase", "value": "~6", "unit": "fold"}]}
{"smiles": "CN(C(=O)OC[C@@H](c1ccccc1)N1Cc2cc(Oc3ccccc3)ccc2N=C1N)C1CCCCC1", "note": "[3c]", "values": [{"measurement": "fold loss of potency", "setting": "recombinant β-secretase; compared to 3b", "value": "~5", "unit": "fold"}]}
{"smiles": "CN(C(=O)OC[C@@H](C1CCCCC1)N1Cc2cc(Oc3ccccc3)ccc2N=C1N)C1CCCCC1", "note": "[3d]", "values": [{"measurement": "fold improved potency", "setting": "recombinant β-secretase; over 3c", "value": 20, "unit": "fold"}]}
{"smiles": "CN(C(=O)CC[C@@H](C1CCCOC1)N1Cc2cc(Oc3ccccc3)ccc2N=C1N)C1CCCCC1", "note": "(stereo partly shown) [3g]", "values": [{"measurement": "fold lower enzyme inhibitory potency", "setting": "recombinant β-secretase", "value": "~5", "unit": "fold"}]}
{"smiles": "COCc1nc(CN(C(=O)CC[C@@H](C2CCCCC2)N2Cc3cc(Oc4ccccc4)ccc3N=C2N)C2CCCCC2)cs1", "note": "[4f]", "values": [{"measurement": "fold improvement of enzyme activity", "setting": "recombinant β-secretase; over 4b", "value": "~6", "unit": "fold"}]}
{"smiles": "NC1=Nc2ccc(Oc3ccccc3)cc2CN1[C@@H](CCC(=O)N(Cc1cn[nH]c1)C1CCCCC1)C1CCCCC1", "note": "[4h]", "values": [{"measurement": "IC50", "setting": "[1]", "value": 48, "unit": "nM"}]}
{"smiles": "COc1cccc(CNC[C@@H](O)[C@H](Cc2ccccc2)NC(=O)c2cc(C(=O)N[C@H](C)c3ccccc3)cc(N(C)S(C)(=O)=O)c2)c1", "note": "[GRL-8234]", "values": [{"measurement": "effect on cognitive function", "setting": "transgenic AD mice", "value": "rescued the decline of cognitive function"}]}
